From patent publication US11440913B2, “Aminoimidazopyridazines as kinase inhibitors” (BRISTOL-MYERS SQUIBB COMPANY, priority 2017, dated 2022)
Counter-ions that a name gives are not always drawn. Like-named read-outs stand apart in the source and are kept apart here.

How the values were obtained:
[1] = tested on: MLKL phosphorylation in HT29-L23 human colorectal adenocarcinoma cells; test: MLKL Phosphorylation High-Content Assay; type: cell-based; settings: necroptosis induced with TNFα, SMAC mimetic and Z-VAD, 6 h, read-out: pMLKL (IC50)
Description: MLKL Phosphorylation High-Content Assay
HT29-L23 human colorectal adenocarcinoma cells were maintained in RPMI 1640 medium containing 10% heat-inactivated FBS, 1% Pennicilin-Streptomycin and 10 mM HEPES. Cells were seeded at 2,000 cells/well in 384 w tissue culture-treated microplates (Greiner #781090-3B) and incubated at 37° C. (5% CO2/95% O2) for two days. On the day of assay, the cells were treated with test compounds at final concentrations of 6.25 to 0.106 μM for 30 min at 37° C. (5% CO2/95% O2). Necroptopsis was induced using a mixture of human TNFα (35 ng/mL) (Peprotech #300-01A), SMAC mimetic (from US 2015/0322111 A1) (700 nM) and Z-VAD (140 nM) (BD pharmingen #51-6936). Following six hours incubation at 37° C. (5% CO2/95% O2), the cells were fixed with 4% formaldedye (ACROS 11969-0010) for 15 min at room temperature and then permeabilized with phoshpate buffered saline (PBS) containing 0.2% Triton-X-100 for 10 min. MLKL phosporylation was detected using anti-MLKL (phospho S358) antibody (Abcam # ab187091) (1:1000 dilution in Blocking Buffer [PBS supplemented with 0.1% BSA]) with overnight incubation at 4° C. After washing three times in PBS, goat anti-rabbit Alexa-488 (1:1000 dilution) (Life Technologies, A11008) and Hoechst 33342 (Life Technologies, H3570) (1:2000 dilution) in Blocking Buffer were added for 1 h at room temperature. Following another three cycles of washes in PBS, the microplates were sealed, and cellular images were acquired in the Cellomics ArrayScan VTI high-content imager equipped with an X1 camera. Fluorescent images were taken using a 10× objective and the 386-23 BGRFRN_BGRFRN and 485-20 BGRFRN_BGRFRN filter sets, for nuclei and MLKL phosphorylation, respectively. The image sets were analyzed using the Compartmental Analysis Bioapplication software (Cellomics). The level of MLKL phosphorylation was quantified as MEAN_CircRingAvgIntenRatio. […] The IC50 value was defined as the concentration of compound that produces 50% of the maximal inhibition. The data were fitted using the 4-parameter logistic equation to calculate the IC50 and Ymax values.

[2] = target: His-GST-TVMV-hRIPK1(1-324) (Homo sapiens (Human), UniProt Q13546); test: RIPK1 HTRF Binding Assay
Chain of His-GST-TVMV-hRIPK1(1-324) (Q13546 1-324): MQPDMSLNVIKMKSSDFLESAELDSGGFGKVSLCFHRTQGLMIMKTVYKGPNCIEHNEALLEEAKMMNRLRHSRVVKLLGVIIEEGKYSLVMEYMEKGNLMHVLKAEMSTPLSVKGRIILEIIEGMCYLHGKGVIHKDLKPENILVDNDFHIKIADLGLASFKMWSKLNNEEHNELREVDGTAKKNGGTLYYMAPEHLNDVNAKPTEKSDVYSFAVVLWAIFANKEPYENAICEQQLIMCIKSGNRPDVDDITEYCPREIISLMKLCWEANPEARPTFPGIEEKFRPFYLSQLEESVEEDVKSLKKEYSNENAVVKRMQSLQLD
Description: A solution was prepared containing 0.2 nM Anti GST-Tb (Cisbio, 61GSTTLB), 90.6 nM probe and 1 nM His-GST-TVMV-hRIPK1(1-324) in FRET Buffer (20 mM HEPES, 10 mM MgCl2, 0.015% Brij-35, 4 mM DTT, 0.05 mg/mL BSA). Using Formulatrix Tempest, the detection antibody/enzyme/probe solution ([…]) was dispensed into wells of a 1536 plate (Black Low Binding Polystyrene 1536 Plate (Corning, 3724)) containing 10 nL of compounds of interest at appropriate concentration in DMSO. The plate was incubated at rt for 1 h. FRET was measured using the EnVision plate reader (Excitation: 340 nm, Emission: 520 nm/[…]). Total signal (0% inhibition) was calculated from wells containing 10 nL DMSO only.
The coding region of human RIPK1(1-324) flanked by NdeI site at 5′ end and stop codon TGA and XhoI site at 3′ end was codon optimized and gene synthesized at GenScript USA Inc. (Piscataway, N.J.) and subcloned into a modified pFastBacl vector (Invitrogen, Carlsbad, Calif.) with N-terminal His-GST-TVMV tag, to generate His-GST-TVMV-hRIPK1(1-324)-pFB. The fidelity of the synthetic fragment was confirmed by sequencing.

[3] = HTRF binding, 1 h at rt, read-out: RIPK1 (IC50)

Compound	IC50 [1] [nM]	IC50 ([1]; Homo sapiens) [nM]	further results
3-{2- acetamidoimidazo [1,2-b]pyridazin- 6-yl}-2-fluoro- N-{[2-fluoro-5- (trifluoromethoxy) phenyl] (Â^2Hâ,,)methyl} benzamide [Example 430]	9	–	IC50 [2, 3]: 3 nM
5-{2- acetamidoimidazo [1,2-b]pyridazin- 6-yl}-N-[(1R)- 1-[2-fluoro-5- (trifluoromethyl) phenyl](2,2,2-Â^2Hâ,f) ethyl]-2 methylbenzamide [Example 425]	327	–	IC50 [2, 3]: > 5000 nM
5-{2- acetamidoimidazo [1,2-b]pyridazin- 6-yl}-N-{[2- fluoro-5- (trifluoromethoxy) phenyl] (Â^2Hâ,,)methyl}-2- methylbenzamide [Example 426]	7	–	IC50 [2, 3]: 1 nM
5-{2- acetamidoimidazo[1,2-b]pyridazin- 6-yl}-N-{[2-fluoro-5- (trifluoromethyl)phenyl]methyl}-2- methoxypyridine-3-carboxamide [Example 146]	48	–	IC50 [2, 3]: 17 nM
5-{2-acetamidoimidazo[1,2-b]pyridazin- 6-yl}-2-methoxy-6-methyl-N-{[2- (trifluoromethoxy)phenyl](deutero)- methyl}pyridine-3-carboxamide [Example 295]	23	–	IC50 [2, 3]: 10 nM
5-{2-acetamidoimidazo[1,2-b]pyridazin- 6-yl}-N-{[2-fluoro-5- (trifluoromethoxy)phenyl]- (deutero)methyl}-2-methoxy-6- methylpyridine-3-carboxamide [Example 282]	8	–	IC50 [2, 3]: 10 nM
5-{2-acetamidoimidazo[1,2-b]pyridazin- 6-yl}-N-{[3-fluoro-5- (trifluoromethoxy)phenyl]methyl}-2,6- dimethylpyridine-3-carboxamide, TFA [Example 79]	46	–	IC50 [2, 3]: 38 nM
CC(=O)Nc1cn2nc(-c3cncc(NS(=O)(=O)c4ccc(F)cc4)c3)ccc2n1 [Example 11 in US2009/0163489, reference compound]	–	–	IC50 ([2]; comparison compound of US2009/0163489, read-out: IC50 in the RIPK1 assay): 11000 nM
CC(=O)Nc1cn2nc(-c3cc(C(=O)NCc4cccnc4OCC4CCC4)c(C)nc3C)ccc2n1 [Example 86, N-{[2-(cyclobutylmethoxy)pyridin-3-yl]methyl}-5-{2-acetamidoimidazo[1,2-b]pyridazin-6-yl}-2,6-dimethylpyridine-3-carboxamide]	27	–	–
COc1ncc(-c2ccc3nc(NC(C)=O)cn3n2)cc1C(=O)NCc1ncccc1OCC(F)(F)F [Example 101, 5-{2-acetamidoimidazo[1,2-b]pyridazin-6-yl}-2-methoxy-N-{[3-(2,2,2-trifluoroethoxy)pyridin-2-yl]methyl}pyridine-3-carboxamide, 2 TFA]	248	–	–
COc1ncc(-c2ccc3nc(NC(C)=O)cn3n2)cc1C(=O)NCc1cc(F)ccc1C(=O)N1CCC(F)(F)C1 [Example 323, N-{[2-(3,3-difluoropyrrolidine-1-carbonyl)-5-fluorophenyl]methyl}-5-{2-acetamidoimidazo[1,2-b]pyridazin-6-yl}-2-methoxypyridine-3-carboxamide]	–	9	–
COc1ncc(-c2ccc3nc(NC(C)=O)cn3n2)cc1C(=O)NCc1cc(F)cc(F)c1C(=O)N1CCC(F)(F)C1 [Example 324, N-{[2-(3,3-difluoropyrrolidine-1-carbonyl)-3,5-difluorophenyl]methyl}-5-{2-acetamidoimidazo[1,2-b]pyridazin-6-yl}-2-methoxypyridine-3-carboxamide]	–	3	–
Cc1ncc(-c2ccc3nc(NC(=O)CN4CCOCC4)cn3n2)cc1C(=O)N[C@H](C)c1cc(OC(F)(F)F)ccc1F [Example 337, N-[(1R)-1-[2-fluoro-5-(trifluoromethoxy)-phenyl]ethyl]-2-methyl-5-{2-[2-(morpholin-4-yl)acetamido]imidazo[1,2-b]pyridazin-6-yl}pyridine-3-carboxamide]	–	11	–
Cc1ncc(-c2ccc3nc(NC(=O)CN4CCOCC4)cn3n2)cc1C(=O)NCC[C@@H](O)c1ccc(Cl)cc1 [Example 345, N-[(3R)-3-(4-chlorophenyl)-3-hydroxypropyl]-2-methyl-5-{2-[2-(morpholin-4-yl)acetamido]imidazo[1,2-b]pyridazin-6-yl}pyridine-3-carboxamide]	–	44	–
Cc1ncc(-c2ccc3nc(NC(=O)CN4CCOCC4)cn3n2)cc1C(=O)NCC[C@H](O)c1ccc(Cl)cc1 [Example 346, N-[(3S)-3-(4-chlorophenyl)-3-hydroxypropyl]-2-methyl-5-{2-[2-(morpholin-4-yl)acetamido]imidazo[1,2-b]pyridazin-6-yl}pyridine-3-carboxamide]	–	82	–
CC(=O)Nc1cn2nc(-c3cc(F)c(C)c(C(=O)NCc4cc(-c5cnn(C)c5)ccc4F)c3)ccc2n1 [Example 358, 5-(2-acetamidoimidazo[1,2-b]pyridazin-6-yl)-3-fluoro-N-(2-fluoro-5-(1-methyl-1H-pyrazol-4-yl)benzyl)-2-methylbenzamide]	–	49	–
CC(=O)Nc1cn2nc(-c3c(F)c(F)cc(C(=O)NCc4cc(C(F)(F)F)ccc4F)c3F)ccc2n1 [Example 369, 3-{2-acetamidoimidazo [1,2-b]pyridazin-6-yl}-2,4,5-trifluoro-N-{[2-fluoro-5-(trifluoromethyl)phenyl]methyl} benzamide]	–	61	–
COc1ccc(-c2ccc3nc(NC(C)=O)cn3n2)c(F)c1C(=O)NCC[C@@H](O)c1ccc(Cl)cc1 [Example 374, N-[(3R)-3-(4-chlorophenyl)-3-hydroxypropyl]-3-{2-acetamidoimidazo [1,2-b]pyridazin-6-yl}-2-fluoro-6-methoxybenzamide]	–	19	–
CC(=O)Nc1cn2nc(-c3cc(C(=O)NCc4cc(OC(F)(F)F)ccc4F)c(Cl)cc3C)ccc2n1 [Example 393, 2-chloro-5-{2-acetamidoimidazo [1,2-b]pyridazin-6-yl}-N-{[2-fluoro-5-(trifluoromethoxy)phenyl]methyl}-4-methylbenzamide]	–	8	–
CC(=O)Nc1cn2nc(-c3ccc(C)c(C(=O)Nc4cnn(Cc5ccccc5)c4)c3)ccc2n1 [Example 399, N-(1-benzyl-1H-pyrazol-4-yl)-5-{2-acetamidoimidazo [1,2-b]pyridazin-6-yl}-2-methylbenzamide]	–	5	–
CC(=O)Nc1cn2nc(-c3cc(C(=O)NCC[C@@H](O)c4ccc(Cl)cc4)c(C)cc3F)ccc2n1 [Example 415, N-[(3R)-3-(4-chlorophenyl)-3-hydroxypropyl]-5-{2-acetamidoimidazo[1,2-b]pyridazin-6-yl}-4-fluoro-2-methylbenzamide]	–	4	–
COc1ccc(-c2ccc3nc(NC(C)=O)cn3n2)cc1C(=O)NCc1cc(OC(F)(F)F)ccc1F [Example 418, 5-{2-acetamidoimidazo [1,2-b]pyridazin-6-yl}-N-{[2-fluoro-5-(trifluoromethoxy)phenyl]methyl}-2-methoxybenzamide]	–	26	–
CC(=O)Nc1cn2nc(-c3c(F)ccc(C(=O)N[C@H](C)c4cc(C(F)(F)F)ccc4F)c3F)ccc2n1 [Example 423, 3-{2-acetamidoimidazo [1,2-b]pyridazin-6-yl}-2,4-difluoro-N-[(1R)-1-[2-fluoro-5-(trifluoromethyl)phenyl]ethyl] benzamide]	–	109	–
CC(=O)Nc1cn2nc(-c3cc(C(=O)NCc4cc(OC(F)(F)F)ccc4F)ccc3C)ccc2n1 [Example 433, 3-{2-acetamidoimidazo [1,2-b]pyridazin-6-yl}-N-{[2-fluoro-5-(trifluoromethoxy)phenyl]methyl}-4-methylbenzamide]	–	34	–
